The assay deals with PC12 cells. Kind of assay: KCN-induced necrosis of PC12 cells, LDH release. As to conditions: for inhibition at 1 µM / inhibition at 0.0001 µM / inhibition at 0.001 µM / inhibition at 0.01 µM / inhibition at 0.1 µM: Rattus norvegicus, PC-12, 5 h, KCN, PC12, LDH release (Table 5); for inhibition at 1 µM: read-out: % protection at 1 μM; for % protection at indicated concentration 0.1 nM / % protection at indicated concentration 1 nM / % protection at indicated concentration 10 nM / % protection at indicated concentration 100 nM / % protection at indicated concentration 1 μM / protection of cells at 10 μM: KCN-induced necrosis (Table 2); for % protection at indicated concentration 0.1 nM / inhibition at 0.0001 µM: 0.1 nM; for inhibition at 0.0001 µM: read-out: % protection at 0.1 nM; for % protection at indicated concentration 1 nM / inhibition at 0.001 µM: 1 nM; for inhibition at 0.001 µM: read-out: % protection at 1 nM; for % protection at indicated concentration 10 nM / inhibition at 0.01 µM: 10 nM; for inhibition at 0.01 µM: read-out: % protection At 10 nM; for inhibition at 0.1 µM: read-out: % protection at 0.1 μM; for KCN-induced necrotic cell death assessed by LDH release: PC12, KCN 5 hours, FIGS. 6, 7A-B. The format is cell-based, rat. Here is the method: The rat pheochromocytoma PC12 cell line was propagated in DMEM medium (Beit Haemek, Israel), supplemented with 5% heat-inactivated calf serum, 10% heat-inactivated horse serum, 2 mM L-glutamine, 100 U/ml penicillin and 100 μg/ml streptomycin. PC12 cells in logarithmic phase were seeded at a concentration of 1.2×10^5/well in 96-well plates and incubated overnight.
Thereafter, the cells were washed twice and maintained in RPMI-1640 (U-937cells) and DMEM (PC-12 cells) glucose-free medium, supplemented with 2 mM pyruvate and 10% dialyzed FCS for one hour. Then cells were treated with or without KCN (Merck, Germany) at the indicated concentrations for 7 hours (U-937 cells), or for 5 hours (PC12 cells).
Elastase inhibitors II (MeOSuc-AAPA-CMK) and elastase inhibitor III (MeOSuc-AAPV-CMK) were purchased from Calbiochem-Novabiochem, USA. Compound Gly-Phe diazomethylketone was purchased from MP Biomedicals, USA. All the compounds disclosed in Table 1 hereinabove were purchased from ChemDiv, San Diego, CA. The compounds were dissolved in DMSO and were administered 30 min before addition of the cell death inducer. The final concentration of DMSO, added to all samples, was 0.1%, which had no effect by itself siRNA and cell transfection
The amount of LDH released from lysed cells is a sensitive measure of cell death. Necrotic cell death was measured in 96-well plates using Promega CytoTox 96 LDH assay kit. LDH content from the cells lysed in 0.1% Triton X-100 for 10 min was used as an index of total LDH. The LDH released in culture medium was used as an index of necrotic cell death and the percentage from total LDH was calculated. The protection by the inhibitor was calculated based on comparing percentage of LDH release in the presence and in the absence of the inhibitor. The inhibitors were also added to totals, blanks and controls. Absorbance at 490 nm was measured by ELISA reader (BioTec).
These compounds were tested for their ability to inhibit necrosis induced by KCN in PC12 cells. The necrotic mode of cell death in this system was validated as previously described. PC12 cells were challenged with KCN as described above. The protective results of the compounds against KCN-induced necrosis assessed using LDH release method are shown below in Table 5. The IC50 values of these inhibitors is in the range of tens to single nanomolar.

The values below come from patent US11945787B2, “Substituted imidazoles for preventing and/or treating cell or tissue necrosis” (Ela Pharma Ltd, priority 2015, dated 2024).

Molecules are shown by their SMILES. Where a SMILES comes first, the peptide text is derived from it. The star is where a group is joined. CHN2 = [N-]=[N+]=C*

Take `O=C(CC1CCCC1)N1CCN=C1N1CCCC1` [M059-0055, 2-cyclopentyl-1-(2-(pyrrolidin-1-yl)-4,5-dihydro-1H-imidazol-1-yl)ethanone]: the inhibition at 1 µM was 68%.
As for `CCOC(=O)CN1C(=O)c2ccccc2S1(=O)=O` [5149-0030, Ethyl-2,3-dihydro-3-oxo-1,2-benzisothiazole-2-acetate-1,1-dioxide], the “% protection at indicated concentration 0.1 nM” value is 19%, the “% protection at indicated concentration 1 nM” value is on record as 25%, the “% protection at indicated concentration 10 nM” value came out at 35% and the “% protection at indicated concentration 100 nM” value was 68%. In addition, the “% protection at indicated concentration 1 μM” value was 80%, the inhibition at 0.0001 µM came to 19%, the inhibition at 0.001 µM was 25% and the inhibition at 0.01 µM was found to be 35%. For the same compound, the inhibition at 0.1 µM is 68% and the inhibition at 1 µM was 80%.
As to `O=C(O)Cn1nnc(-c2ccncc2)n1` [8018-2960, 2-(5-(pyridin-4-yl)-2H-tetrazol-2-yl)acetic acid], the inhibition at 0.0001 µM was 38%, the inhibition at 0.001 µM was found to be 25%, the inhibition at 0.01 µM was found to be 54% and the inhibition at 0.1 µM turned out to be 80%. For the same compound, the inhibition at 1 µM turned out to be 84%.
Consider `O=C(c1ccccc1F)N1CCN=C1N1CCCCC1` [M059-0216, (2-fluorophenyl)-[2-(1-piperidyl)-4,5-dihydroimidazol-1-yl] methanone], for which the “protection of cells at 10 μM” value is 10 μM confers protection 71% of cells.
As for `CC(C)C[C@H](NC(=O)N[C@H](C(=O)N[C@@H](CCC(N)=O)C(=O)N[C@@H](C)C=O)[C@@H]1CCNC(=N)N1)C(=O)O` [elastatinal, reference compound], the “KCN-induced necrotic cell death assessed by LDH release” value is “no protective effect”.
As to `O=C(c1ccco1)N1CCN=C1N1CCCC1` [M059-0032, furan-2-yl(2-(pyrrolidin-1-yl)-4,5-dihydro-1H-imidazol-1-yl)methanone], the inhibition at 0.0001 µM was determined as 7%, the inhibition at 0.001 µM came out at 25%, the inhibition at 0.01 µM was 37% and the inhibition at 0.1 µM was found to be 59%. Besides, the inhibition at 1 µM is 72%.
Take `c1ccc(-c2noc(CC3CCCCC3)n2)nc1` [4953-1443, 5-(cyclohexylmethyl)-3-(pyridin-2-yl)-1,2,4-oxadiazole]: the inhibition at 1 µM was 51%.
Regarding `O=C(O)c1cccc(S(=O)(=O)N2CCCC2)c1` [3506-0172, 3-(pyrrolidin-1-ylsulfonyl)benzoic acid], the inhibition at 0.01 µM turned out to be 18%, the inhibition at 0.1 µM came out at 19% and the inhibition at 1 µM was found to be 52%.
`CCC(CC)C(=O)N1CCN=C1N1CCCC1` [M059-0053, 2-ethyl-1-(2-(pyrrolidin-1-yl)-4,5-dihydro-1H-imidazol-1-yl)butan-1-one]: the inhibition at 1 µM was 39%.
For the compound `CCN1CCN(c2c(C)c(C)nc3ncnn23)CC1` [Z606-8336, 7-(4-ethylpiperazin-1-yl)-5,6-dimethyl-[1,2,4]triazolo[1,5-a]pyrimidine], the inhibition at 0.0001 µM turned out to be 29%, the inhibition at 0.001 µM was 35%, the inhibition at 0.01 µM is 54% and the inhibition at 0.1 µM worked out at 64%. Besides, the inhibition at 1 µM worked out at 75%.
Turning to `O=C(O)c1nc2ncccn2n1` [R052-2664, [1,2,4]triazolo[1,5-a]pyrimidine-2-carboxylic acid], the inhibition at 0.01 µM is 21%, the inhibition at 0.1 µM turned out to be 49% and the inhibition at 1 µM turned out to be 50%.
For `O=C1C(NS(=O)(=O)c2ccc(Cl)s2)CCN1c1ccccc1` (stereo not drawn) [P316-0028, 5-chloro-N-(2-oxo-1-phenylpyrrolidin-3-yl)thiophene-2-sulfonamide], in that order: 43%, 49% and 53%.
Consider `CC(=O)Nc1nc(SCCC(=O)O)n[nH]1` [L150-1122, 3-((5-acetamido-1H-1,2,4-triazol-3-yl)thio)propanoic acid], for which the inhibition at 0.0001 µM was 22%, the inhibition at 0.001 µM came out at 25%, the inhibition at 0.01 µM was determined as 30% and the inhibition at 0.1 µM was determined as 44%. Moreover, the inhibition at 1 µM amounted to 68%.
Take `[N-]=[N+]=CC(=O)[C@H](Cc1ccccc1)NC(=O)CN` [Gly-Phe-DMK, Gly-Phe-diazomethylketone, reference compound] (H-Gly-Phe-CHN2): the “KCN-induced necrotic cell death assessed by LDH release” value is on record as “inhibited cell necrosis”.
`O=C(N1CCN(c2nnc3ccc(Cl)cn23)CC1)C1(c2ccccc2)CC1` [T404-2346, (4-(6-chloro-[1,2,4]triazolo[4,3-a]pyridin-3-yl)piperazin-1-yl)(1-phenylcyclopropyl)methanone]: the inhibition at 0.1 µM worked out at 42%.
As for `CC(C)C(=O)Nc1ccc(Oc2ccc(NC(=O)C(C)C)cc2)cc1` [Y200-4083, N,N'-(oxybis(4,1-phenylene))bis(2-methylpropanamide)], the “% protection at indicated concentration 0.1 nM” value is on record as 11%, the “% protection at indicated concentration 1 nM” value was found to be 25%, the “% protection at indicated concentration 10 nM” value is on record as 32% and the “% protection at indicated concentration 100 nM” value is given as 49%. Moreover, the “% protection at indicated concentration 1 μM” value came out at 74%.
As to `CNC(=O)c1n[nH]c2c1CCCCCC2` [Z632-6109, N-methyl-4,5,6,7,8,9-hexahydro-1H-cycloocta[c]pyrazole-3-carboxamide], the inhibition at 0.0001 µM came out at 26%, the inhibition at 0.001 µM turned out to be 25%, the inhibition at 0.01 µM stood at 40% and the inhibition at 0.1 µM came to 70%. In addition, the inhibition at 1 µM was 81%.
Take `O=S1(=O)N=C(NCCN2CCCC2)C(NCCN2CCCC2)=N1` [Z087-0195, 3,4-bis((2-(pyrrolidin-1-yl)ethyl)amino)-1,2,5-thiadiazole 1,1-dioxide]: the inhibition at 0.0001 µM worked out at 9%, the inhibition at 0.001 µM came out at 21%, the inhibition at 0.01 µM worked out at 25% and the inhibition at 0.1 µM is 80%. Moreover, the inhibition at 1 µM stood at 98.5%.
Turning to `Cn1c(-c2c(C(C)(C)C)oc3cc(OC(=O)C(C)(C)C)ccc3c2=O)nc2ccccc21` [4356-0595, 2-(tert-butyl)-3-(1-methyl-1H-benzo[d]imidazol-2-yl)-4-oxo-4H-chromen-7-yl pivalate], the inhibition at 0.0001 µM came out at 4%, the inhibition at 0.001 µM stood at 21%, the inhibition at 0.01 µM stood at 36% and the inhibition at 0.1 µM turned out to be 57%. The inhibition at 1 µM is 69%.
Regarding `O=C(c1ccccc1Br)N1CCN=C1N1CCCCC1` [M059-0193, (2-bromophenyl)-[2-(1-piperidyl)-4,5-dihydroimidazol-1-yl] methanone], the “protection of cells at 10 μM” value is reported as 10 μM confers protection 58% of cells.
On to `CCCC(=O)N1CCN=C1N1CCCCC1` [M059-0335, 1-(2-(piperidin-1-yl)-4,5-dihydro-1H-imidazol-1-yl)butan-1-one], for which the inhibition at 1 µM came to 47%.
Turning to `Cn1c(=O)[nH]c(=O)c2[nH]c(N3CCCCC3)nc21` [D226-0031, 3-methyl-8-(piperidin-1-yl)-1H-purine-2,6(3H,7H)-dione], the inhibition at 0.0001 µM was 29%, the inhibition at 0.001 µM was 26%, the inhibition at 0.01 µM amounted to 43% and the inhibition at 0.1 µM is 37%. The inhibition at 1 µM is 65%.
Take `CCn1c2ccccc2c2nnc(NCc3ccccn3)nc21` [E205-0066, 5-ethyl-N-(pyridin-2-ylmethyl)-5H-[1,2,4]triazino[5,6-b]indol-3-amine]: the inhibition at 0.01 µM was found to be 18%, the inhibition at 0.1 µM turned out to be 32% and the inhibition at 1 µM amounted to 58%.
Take `CC1Cc2ccccc2N1S(=O)(=O)c1ccc(C(=O)O)cc1` (stereo not drawn) [D216-0746, 4-((2-methylindolin-1-yl)sulfonyl)benzoic acid]: the inhibition at 0.0001 µM came to 29%, the inhibition at 0.001 µM stood at 37%, the inhibition at 0.01 µM stood at 47% and the inhibition at 0.1 µM was 84%. For the same compound, the inhibition at 1 µM came out at 90%.
